From ChEMBL document CHEMBL1156904, “Part II: piperazinyl-glutamate-pyridines as potent orally bioavailable P2Y12 antagonists for inhibition of platelet aggregation” (Bioorg Med Chem Lett, 2010)

Tests used:
[1] = Antiplatelet activity in human platelet rich plasma assessed as inhibition of ADP-induced platelet aggregation; type: functional
[2] = Clearance in Sprague-Dawley rat at 2 mg/kg, iv and 5 mg/kg, po; type: ADME, organism-based; conditions: in vivo
[3] = Volume of distribution at steady state in Sprague-Dawley rat at 2 mg/kg, iv and 5 mg/kg, po; type: ADME, organism-based; conditions: in vivo, read-out: Vdss
[4] = Antiplatelet activity in human platelet rich plasma assessed as inhibition of ADP-induced platelet aggregation relative to AZD-6140; type: functional
[5] = Metabolic stability in rat microsomes; type: ADME, Microsome
[6] = molecular target: P2Y purinoceptor 12 (Homo sapiens, UniProt Q9H244); experiment: Inhibition of human P2Y12 receptor expressed in CHO cells
[7] = Metabolic stability in human microsomes; type: ADME, Microsome
[8] = Effective half life in Sprague-Dawley rat at 2 mg/kg, iv and 5 mg/kg, po; type: ADME, organism-based; conditions: in vivo, read-out: t1/2eff (converted)
[9] = Volume of distribution at steady state in Beagle dog at 0.2 mg/kg, iv and 0.2 mg/kg, po; type: ADME, organism-based, Canis lupus familiaris; conditions: in vivo, read-out: Vdss
[10] = Effective half life in Beagle dog at 0.2 mg/kg, iv and 0.2 mg/kg, po; type: ADME, organism-based, Canis lupus familiaris; conditions: in vivo
[11] = Clearance in Beagle dog at 0.2 mg/kg, iv and 0.2 mg/kg, po; type: ADME, organism-based, Canis lupus familiaris; conditions: in vivo

Chain of P2Y purinoceptor 12 (Q9H244 whole entry): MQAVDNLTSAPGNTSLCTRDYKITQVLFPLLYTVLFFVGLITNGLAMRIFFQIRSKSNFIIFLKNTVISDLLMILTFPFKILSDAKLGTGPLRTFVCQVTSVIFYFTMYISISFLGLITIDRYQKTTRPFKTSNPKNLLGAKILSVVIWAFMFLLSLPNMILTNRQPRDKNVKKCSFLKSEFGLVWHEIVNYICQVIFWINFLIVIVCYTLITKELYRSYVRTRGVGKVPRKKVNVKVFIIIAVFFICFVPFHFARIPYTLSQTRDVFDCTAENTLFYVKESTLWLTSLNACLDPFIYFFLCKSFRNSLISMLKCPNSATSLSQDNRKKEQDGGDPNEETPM

IC50 [1] [nM] | clearance [2] [mL/min/kg] | Vd [3] [L/kg] | Stability [5] | Ki [6] [nM] | Stability [7] | half-life [8] [min] | SMILES | fold change (FC) [4] | Vd [9] [L/kg] | half-life [10] [min] | clearance [11] [mL/min/kg]
2300 | 141 | 10 | Stable | 15 | Stable | 48 | CCCCCOC(=O)N1CCN(C(=O)[C@H](CCC(=O)O)NC(=O)c2cc(N3CCN(C)CC3)cc(-c3ccccc3)n2)CC1 | 2.5 | – | – | –
660 | 41 | 0.8 | Stable | 5 | Stable | 12 | CCCCCOC(=O)N1CCN(C(=O)[C@H](CCC(=O)O)NC(=O)c2cc(N3CC[C@H](OCC(=O)N(C)C)C3)cc(-c3ccccc3)n2)CC1 | 0.75 | – | – | –
1700 | 47 | 1.8 | Stable | 7.3 | Stable | 24 | CCCCCOC(=O)N1CCN(C(=O)[C@H](CCC(=O)O)NC(=O)c2cc(N3CCCC(CN4CCCC4)C3)cc(-c3ccccc3)n2)CC1 (stereo not given in full) | 1.5 | – | – | –
330 | 87 | 2.1 | Stable | 3.5 | Stable | 18 | CCCCCOC(=O)N1CCN(C(=O)[C@H](CCC(=O)O)NC(=O)c2cc(N3CC[C@@H](OCC(=O)N(CC)CC)C3)cc(-c3ccccc3)n2)CC1 | 0.38 | – | – | –
2300 | 70 | 2.4 | Stable | 22 | Stable | 24 | CCCCCOC(=O)N1CCN(C(=O)[C@H](CCC(=O)O)NC(=O)c2cc(N3CCN(C(C)=O)CC3)cc(-c3ccccc3)n2)CC1 | 2.7 | – | – | –
1100 | – | – | Stable | 8.3 | Stable | – | CCCCCOC(=O)N1CCN(C(=O)[C@H](CCC(=O)O)NC(=O)c2cc(N3CCN(CCOC)CC3)cc(-c3ccccc3)n2)CC1 | 2.1 | – | – | –
3000 | – | – | Stable | 26 | Stable | – | CCCCCOC(=O)N1CCN(C(=O)[C@H](CCC(=O)O)NC(=O)c2cc(N3CC[C@H](C(=O)N(C)C)C3)cc(-c3ccccc3)n2)CC1 | 4.1 | – | – | –
1800 | – | – | Stable | 5.5 | Stable | – | CCCCCOC(=O)N1CCN(C(=O)[C@H](CCC(=O)O)NC(=O)c2cc(N3CCCC(N)C3)cc(-c3ccccc3)n2)CC1 (stereo not given in full) | 2.2 | – | – | –
1300 | – | – | Stable | 3.8 | Stable | – | CCCCOC(=O)N1CCN(C(=O)[C@H](CCC(=O)O)NC(=O)c2cc(N3CCC(CNCC)CC3)cc(-c3ccccc3)n2)CC1 | 1.4 | – | – | –
650 | 11 | 0.3 | Stable | 0.58 | Stable | 18 | CCCCCOC(=O)N1CCN(C(=O)[C@H](CCC(=O)O)NC(=O)c2cc(N3CCC(C(=O)NCC)CC3)cc(-c3ccccc3)n2)CC1 | 1 | – | – | –
2900 | – | – | Stable | 5.9 | Stable | – | CCCCCOC(=O)N1CCN(C(=O)[C@H](CCC(=O)O)NC(=O)c2cc(N3CCN(CC(=O)N(CC)CC)CC3)cc(-c3ccccc3)n2)CC1 | 3.2 | – | – | –
3600 | – | – | Stable | 24 | Stable | – | CCCCCOC(=O)N1CCN(C(=O)[C@H](CCC(=O)O)NC(=O)c2cc(N3CC[C@@H](C(=O)N(C)C)C3)cc(-c3ccccc3)n2)CC1 | 3.8 | – | – | –
750 | – | – | Stable | 8 | Stable | – | CCCCCOC(=O)N1CCN(C(=O)[C@H](CCC(=O)O)NC(=O)c2cc(N3CCC(CCN4CCCC4)CC3)cc(-c3ccccc3)n2)CC1 | 0.59 | – | – | –
600 | – | – | Stable | 0.98 | Stable | – | CCCCCOC(=O)N1CCN(C(=O)[C@H](CCC(=O)O)NC(=O)c2cc(N3CCC(C(=O)N(C)C)CC3)cc(-c3ccccc3)n2)CC1 | 0.72 | – | – | –
2600 | – | – | Stable | 1.7 | Stable | – | CCCCCOC(=O)N1CCN(C(=O)[C@H](CCC(=O)O)NC(=O)c2cc(N3CC[C@H](C(=O)N4CCCC4)C3)cc(-c3ccccc3)n2)CC1 | 2.8 | – | – | –
510 | – | – | Stable | 8.5 | Stable | – | CCCCCOC(=O)N1CCN(C(=O)[C@H](CCC(=O)O)NC(=O)c2cc(N3CCN(CCN(C)C)CC3)cc(-c3ccccc3)n2)CC1 | 0.7 | – | – | –
2900 | – | – | Stable | 9.9 | Stable | – | CCCCCOC(=O)N1CCN(C(=O)[C@H](CCC(=O)O)NC(=O)c2cc(N3CCCC(CNC(C)=O)C3)cc(-c3ccccc3)n2)CC1 (stereo not given in full) | 3.4 | – | – | –
2200 | – | – | Stable | 4 | Stable | – | CCCCCOC(=O)N1CCN(C(=O)[C@H](CCC(=O)O)NC(=O)c2cc(N3CCC(CN(CC)CC)CC3)cc(-c3ccccc3)n2)CC1 | 2.7 | – | – | –
7700 | – | – | Stable | 26 | Stable | – | CCCCCOC(=O)N1CCN(C(=O)[C@H](CCC(=O)O)NC(=O)c2cc(N3CCCC(C(=O)N(CC)CC)C3)cc(-c3ccccc3)n2)CC1 (stereo not given in full) | 4.2 | – | – | –
5000 | – | – | Stable | 29 | Stable | – | CCCCCOC(=O)N1CCN(C(=O)[C@H](CCC(=O)O)NC(=O)c2cc(N3CCN(CCC)CC3)cc(-c3ccccc3)n2)CC1 | 6.3 | – | – | –
800 | – | – | Stable | 1.5 | Stable | – | CCCCOC(=O)N1CCN(C(=O)[C@H](CCC(=O)O)NC(=O)c2cc(N3CCC(CN4CCCC4)CC3)cc(-c3ccccc3)n2)CC1 | 1 | – | – | –
710 | – | – | Stable | 2.8 | Stable | – | CCCCCOC(=O)N1CCN(C(=O)[C@H](CCC(=O)O)NC(=O)c2cc(N3CCN(C(=O)CN(C)C)CC3)cc(-c3ccccc3)n2)CC1 | 2.5 | – | – | –

SMILES | IC50 [1] [nM] | clearance [2] [mL/min/kg] | Vd [3] [L/kg] | Stability [5] | Ki [6] [nM] | Stability [7] | half-life [8] [min] | fold change (FC) [4] | Vd [9] [L/kg] | half-life [10] [min] | clearance [11] [mL/min/kg]
CCCCCOC(=O)N1CCN(C(=O)[C@H](CCC(=O)O)NC(=O)c2cc(N3CCC(COC)CC3)cc(-c3ccccc3)n2)CC1 | 3900 | – | – | Stable | – | Stable | – | 3.3 | 0.14 | 90 | 1
CCCCCOC(=O)N1CCN(C(=O)[C@H](CCC(=O)O)NC(=O)c2cc(N3CCC(CCN(C)C)CC3)cc(-c3ccccc3)n2)CC1 | 390 | 145 | 5.1 | Stable | 12 | Stable | 24 | 0.54 | – | – | –
CCCCCOC(=O)N1CCN(C(=O)[C@H](CCC(=O)O)NC(=O)c2cc(N3CCC(C(=O)N4CCC4)CC3)cc(-c3ccccc3)n2)CC1 | 410 | 9 | 0.2 | Stable | 1.2 | Stable | 18 | 0.64 | – | – | –
CCCCCOC(=O)N1CCN(C(=O)[C@H](CCC(=O)O)NC(=O)c2cc(N3CCC(C(=O)N(CC)CC)CC3)cc(-c3ccccc3)n2)CC1 | 520 | 13 | 2.5 | Stable | 4 | Stable | 36 | 0.65 | 0.12 | 42 | 2
CCCCOC(=O)N1CCN(C(=O)[C@H](CCC(=O)O)NC(=O)c2cc(N3CCC(C(=O)N(CC)CC)CC3)cc(-c3ccccc3)n2)CC1 | 430 | 24 | 0.9 | Stable | 1.1 | Stable | 24 | 0.71 | – | – | –
